Reference: US4442044A, “Process for preparing monoesters and diesters of N-alkyl substituted amino methyl phosphonic acid” (priority 1983, dated 1984)

Legend:
Format in all cases: in vivo
Rice = assay: post-emergent herbicidal activity, greenhouse; details: Table II, 4 WAT
Procedure, shortened: (§1)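 Seeds or propagules sown in compacted top soil, grown 2–3 weeks in greenhouse, then sprayed with compound solution/suspension containing ~0.4% emulsifier at tabulated rates. Injury scored visually versus untreated controls at ~2 and 4 weeks after treatment, expressed as a herbicidal activity index.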

Hemp Sesbania = assay: post-emergent herbicidal activity, greenhouse; details: Table II, 4 WAT
Procedure, shortened: as §1

Soybean = assay: post-emergent herbicidal activity, greenhouse; details: Table II, 4 WAT
Procedure, shortened: as §1

Panicum Spp = assay: post-emergent herbicidal activity, greenhouse; details: Table II, 4 WAT
Procedure, shortened: as §1

Barnyardgrass [1] = assay: post-emergent herbicidal activity, greenhouse; details: 4 WAT
Procedure, shortened: as §1

Cocklebur [2] = assay: post-emergent herbicidal activity, greenhouse; details: 4 WAT
Procedure, shortened: as §1

Morningglory [3] = assay: post-emergent herbicidal activity, greenhouse; details: 4 WAT
Procedure, shortened: as §1

Wild Buckwheat = assay: post-emergent herbicidal activity, greenhouse; details: Table II, 4 WAT
Procedure, shortened: as §1

Velvetleaf [4] = assay: post-emergent herbicidal activity, greenhouse; details: 4 WAT
Procedure, shortened: as §1

Sugar Beet = assay: post-emergent herbicidal activity, greenhouse; details: Table II, 4 WAT
Procedure, shortened: as §1

Smartweed [5] = assay: post-emergent herbicidal activity, greenhouse; details: 4 WAT
Procedure, shortened: as §1

Yellow Nutsedge [6] = assay: post-emergent herbicidal activity, greenhouse; details: Table I, 4 WAT
Procedure, shortened: as §1

Wheat = assay: post-emergent herbicidal activity, greenhouse; details: Table II, 4 WAT
Procedure, shortened: as §1

Sorghum = assay: post-emergent herbicidal activity, greenhouse; details: Table II, 4 WAT
Procedure, shortened: as §1

Quackgrass [7] = assay: post-emergent herbicidal activity, greenhouse; details: Table I, 4 WAT
Procedure, shortened: as §1

Downy Brome [8] = assay: post-emergent herbicidal activity, greenhouse; details: 4 WAT
Procedure, shortened: as §1

Lambsquarters [9] = assay: post-emergent herbicidal activity, greenhouse; details: 4 WAT
Procedure, shortened: as §1

Johnsongrass [10] = assay: post-emergent herbicidal activity, greenhouse; details: Table I, 4 WAT
Procedure, shortened: as §1

Barnyardgrass [11] = assay: pre-emergent herbicidal activity, soil incorporation; details: Table III, 2 WAT, 11.2 kg/h
Excerpt: (§2) A good grade of top soil is placed in aluminum pans and compacted to a depth of 0.95 to 1.27 cm. from the top of each pan. A predetermined number of seeds or vegetative propagules of each of several plant species are placed on top of the soil in each pan and then pressed down. Herbicidal compositions prepared as in the previous example are applied by admixture with or incorporation in the top layer of soil.
(§3) In this method, the soil required to cover the seeds and propagules is weighed and admixed with a herbicidal composition containing a known amount of the active ingredient (compound of this invention). The pans are then filled with the admixture and leveled. Watering is carried out by permitting the soil in the pans to absorb moisture through apertures in the pan bottoms. The seed and propagule containing pans are placed on a wet sand bench and maintained for approximately two weeks under ordinary conditions of sunlight and watering. At the end of this period, the number of emerged plants of each species is noted and compared to an untreated control.
(§4) The pre-emergent herbicidal activity index used below is based upon average percent control of each species as follows: […]

Cocklebur [12] = assay: as above; details: Table III, 2 WAT, 11.2 kg/h
Excerpt: as §2, §3, §4

Morningglory [13] = assay: as above; details: Table III, 2 WAT, 11.2 kg/h
Excerpt: as §2, §3, §4

Velvetleaf [14] = assay: as above; details: Table III, 2 WAT, 11.2 kg/h
Excerpt: as §2, §3, §4

Smartweed [15] = assay: as above; details: Table III, 2 WAT, 11.2 kg/h
Excerpt: as §2, §3, §4

Yellow Nutsedge [16] = assay: as above; details: Table III, 2 WAT, 11.2 kg/h
Excerpt: as §2, §3, §4

Quackgrass [17] = assay: as above; details: Table III, 2 WAT, 11.2 kg/h
Excerpt: as §2, §3, §4

Downy Brome [18] = assay: as above; details: Table III, 2 WAT, 11.2 kg/h
Excerpt: as §2, §3, §4

Lambsquarters [19] = assay: as above; details: Table III, 2 WAT, 11.2 kg/h
Excerpt: as §2, §3, §4

Johnsongrass [20] = assay: as above; details: Table III, 2 WAT, 11.2 kg/h
Excerpt: as §2, §3, §4

CCOCCOC(=O)CNCP(=O)(O)OC(C)C#N (stereo not drawn) [Example 9, glycine, N-[[(1-cyanoethoxy)hydroxyphosphinyl]-methyl],2-ethoxyethyl ester]
4 (100% control): post-emergent herbicidal activity index (Soybean; 5.6 kg/h) | post-emergent herbicidal activity index (Panicum Spp; 0.28 kg/h) | post-emergent herbicidal activity index (Panicum Spp; 1.12 kg/h) | post-emergent herbicidal activity index (Panicum Spp; 5.6 kg/h) | post-emergent herbicidal activity index (Cocklebur [2]; Table I, 11.2 kg/h) | post-emergent herbicidal activity index (Cocklebur [2]; Table II, 5.6 kg/h) | post-emergent herbicidal activity index (Velvetleaf [4]; Table I, 11.2 kg/h) | post-emergent herbicidal activity index (Sugar Beet; 5.6 kg/h) | post-emergent herbicidal activity index (Quackgrass [7]; 5.6 kg/h) | post-emergent herbicidal activity index (Quackgrass [7]; 11.2 kg/h) | post-emergent herbicidal activity index (Downy Brome [8]; Table II, 5.6 kg/h) | post-emergent herbicidal activity index (Lambsquarters [9]; Table I, 5.6 kg/h) | post-emergent herbicidal activity index (Lambsquarters [9]; Table I, 11.2 kg/h) | post-emergent herbicidal activity index (Lambsquarters [9]; Table II, 0.28 kg/h) | post-emergent herbicidal activity index (Lambsquarters [9]; Table II, 1.12 kg/h) | post-emergent herbicidal activity index (Lambsquarters [9]; Table II, 5.6 kg/h) | post-emergent herbicidal activity index (Johnsongrass [10]; 5.6 kg/h) | post-emergent herbicidal activity index (Johnsongrass [10]; 11.2 kg/h)
3 (75-99% control): post-emergent herbicidal activity index (Rice; 5.6 kg/h) | post-emergent herbicidal activity index (Soybean; 1.12 kg/h) | post-emergent herbicidal activity index (Barnyardgrass [1]; Table I, 5.6 kg/h) | post-emergent herbicidal activity index (Barnyardgrass [1]; Table I, 11.2 kg/h) | post-emergent herbicidal activity index (Barnyardgrass [1]; Table II, 1.12 kg/h) | post-emergent herbicidal activity index (Barnyardgrass [1]; Table II, 5.6 kg/h) | post-emergent herbicidal activity index (Cocklebur [2]; Table I, 5.6 kg/h) | post-emergent herbicidal activity index (Morningglory [3]; Table I, 11.2 kg/h) | post-emergent herbicidal activity index (Wild Buckwheat; 5.6 kg/h) | post-emergent herbicidal activity index (Velvetleaf [4]; Table I, 5.6 kg/h) | post-emergent herbicidal activity index (Velvetleaf [4]; Table II, 1.12 kg/h) | post-emergent herbicidal activity index (Velvetleaf [4]; Table II, 5.6 kg/h) | post-emergent herbicidal activity index (Sugar Beet; 0.28 kg/h) | post-emergent herbicidal activity index (Smartweed [5]; Table I, 11.2 kg/h) | post-emergent herbicidal activity index (Yellow Nutsedge [6]; 11.2 kg/h) | post-emergent herbicidal activity index (Wheat; 1.12 kg/h) | post-emergent herbicidal activity index (Wheat; 5.6 kg/h) | post-emergent herbicidal activity index (Sorghum; 5.6 kg/h) | post-emergent herbicidal activity index (Downy Brome [8]; Table I, 11.2 kg/h)
0 (0-24% control): post-emergent herbicidal activity index (Wild Buckwheat; 1.12 kg/h)
1 (25-49% control): post-emergent herbicidal activity index (Rice; 0.28 kg/h) | post-emergent herbicidal activity index (Hemp Sesbania; 0.28 kg/h) | post-emergent herbicidal activity index (Hemp Sesbania; 1.12 kg/h) | post-emergent herbicidal activity index (Hemp Sesbania; 5.6 kg/h) | post-emergent herbicidal activity index (Soybean; 0.28 kg/h) | post-emergent herbicidal activity index (Cocklebur [2]; Table II, 0.28 kg/h) | post-emergent herbicidal activity index (Cocklebur [2]; Table II, 1.12 kg/h) | post-emergent herbicidal activity index (Wild Buckwheat; 0.28 kg/h) | post-emergent herbicidal activity index (Velvetleaf [4]; Table II, 0.28 kg/h) | post-emergent herbicidal activity index (Smartweed [5]; Table II, 5.6 kg/h) | post-emergent herbicidal activity index (Yellow Nutsedge [6]; 5.6 kg/h) | post-emergent herbicidal activity index (Sorghum; 1.12 kg/h) | post-emergent herbicidal activity index (Downy Brome [8]; Table II, 1.12 kg/h) | pre-emergent herbicidal activity index (Yellow Nutsedge [16])
2 (50-74% control): post-emergent herbicidal activity index (Rice; 1.12 kg/h) | post-emergent herbicidal activity index (Barnyardgrass [1]; Table II, 0.28 kg/h) | post-emergent herbicidal activity index (Morningglory [3]; Table I, 5.6 kg/h) | post-emergent herbicidal activity index (Morningglory [3]; Table II, 0.28 kg/h) | post-emergent herbicidal activity index (Morningglory [3]; Table II, 1.12 kg/h) | post-emergent herbicidal activity index (Morningglory [3]; Table II, 5.6 kg/h) | post-emergent herbicidal activity index (Sugar Beet; 1.12 kg/h) | post-emergent herbicidal activity index (Smartweed [5]; Table I, 5.6 kg/h) | post-emergent herbicidal activity index (Smartweed [5]; Table II, 0.28 kg/h) | post-emergent herbicidal activity index (Smartweed [5]; Table II, 1.12 kg/h) | post-emergent herbicidal activity index (Wheat; 0.28 kg/h) | post-emergent herbicidal activity index (Sorghum; 0.28 kg/h) | post-emergent herbicidal activity index (Downy Brome [8]; Table I, 5.6 kg/h) | post-emergent herbicidal activity index (Downy Brome [8]; Table II, 0.28 kg/h)
0 (1-24% control): pre-emergent herbicidal activity index (Barnyardgrass [11]) | pre-emergent herbicidal activity index (Cocklebur [12]) | pre-emergent herbicidal activity index (Morningglory [13]) | pre-emergent herbicidal activity index (Velvetleaf [14]) | pre-emergent herbicidal activity index (Smartweed [15]) | pre-emergent herbicidal activity index (Quackgrass [17]) | pre-emergent herbicidal activity index (Downy Brome [18]) | pre-emergent herbicidal activity index (Lambsquarters [19]) | pre-emergent herbicidal activity index (Johnsongrass [20])
